According to PubChem BioAssay (NCI):
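Five compound concentrations were applied to cells in 96-well plates for 48 hours; endpoints were derived by simple linear interpolation of the resulting dose-response curve. TGI: total growth inhibition.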 *1 amine or outer side, *2 acyl side, *3 side chain or, on linkers, in order; H or OH if unused. Where a SMILES comes first, the peptide text is derived from it. Bridges are numbered along the chain shown (N, C = ends). [ ]: non-standard residue; d: D form. The star is where a group is joined. ξ: configuration not given here. X35 = CC[C@H](C)[C@@H](N[*:1])[C@@H](O)CC(=O)O[C@H](C(=O)[C@H](C)C(=O)[*:2])C(C)C; NMeY = CN[C@@H](Cc1ccc(O)cc1)C(=O)O; ξNMeF = CNC(Cc1ccccc1)C(=O)O; NMeV = CN[C@H](C(=O)O)C(C)C; Boc = CC(C)(C)OC(=O)*; OBn = c1ccc(CO*)cc1

Assays:
Test in all cases: NCI-60 cell line screen, 48 h
CCRF-CEM leukemia = test system: CCRF-CEM leukemia
HOP-62 NSCLC = test system: HOP-62 NSCLC
MOLT-4 leukemia = test system: MOLT-4 leukemia
NCI-H460 lung = test system: NCI-H460 lung
COLO 205 colon = test system: COLO 205 colon
SK-MEL-28 melanoma = test system: SK-MEL-28 melanoma
HOP-92 NSCLC = test system: HOP-92 NSCLC
K-562 leukemia = test system: K-562 leukemia
SF-539 CNS = test system: SF-539 CNS
SF-268 CNS = test system: SF-268 CNS
OVCAR-5 ovarian = test system: OVCAR-5 ovarian
SK-MEL-5 melanoma = test system: SK-MEL-5 melanoma
MDA-MB-231 breast = test system: MDA-MB-231 breast
MDA-MB-435 = test system: MDA-MB-435
HS 578T breast = test system: HS 578T breast

| Compound | TGI (CCRF-CEM leukemia) | TGI (HOP-62 NSCLC) | TGI (MOLT-4 leukemia) | TGI (NCI-H460 lung) | TGI (COLO 205 colon) | TGI (SK-MEL-28 melanoma) | TGI (HOP-92 NSCLC) | TGI (K-562 leukemia) | TGI (SF-539 CNS) | TGI (SF-268 CNS) | TGI (OVCAR-5 ovarian) | TGI (SK-MEL-5 melanoma) | TGI (MDA-MB-231 breast) | TGI (MDA-MB-435) | TGI (HS 578T breast) |
| --- | --- | --- | --- | --- | --- | --- | --- | --- | --- | --- | --- | --- | --- | --- | --- |
| COc1ccc2c(c1)CCc1c-2[nH]c2cc3c(cc2c1=O)OCO3 | > 100 µM | > 100 µM | > 100 µM | > 100 µM | > 100 µM | > 100 µM | > 100 µM | > 100 µM | > 100 µM |  |  |  |  |  |  |
| Nc1nc(SCC(=O)c2ccccc2)c2[nH]cnc2n1 | > 100 µM | > 100 µM | > 100 µM | > 100 µM | > 100 µM | > 100 µM | > 100 µM | > 100 µM | > 100 µM | > 100 µM | > 100 µM | > 100 µM |  |  |  |
| C/C(O)=C(\C=N\C(=S)N=Nc1c(O)[nH]c2ccccc12)C(=O)Nc1ccccc1C |  | > 100 µM | > 100 µM | > 100 µM | > 100 µM | > 100 µM | > 100 µM |  | > 100 µM | > 100 µM | > 100 µM | > 100 µM | > 100 µM | > 100 µM |  |
| C[C@@H]1S[C@H](c2c(F)cccc2Cl)n2c1nc1ccccc12 | 42.6 µM | 29.4 µM | 32 µM |  | 23.6 µM | 26.5 µM |  | > 100 µM | 28.9 µM | 36.3 µM | > 100 µM |  | 27 µM | 25.1 µM | 41.6 µM |
| C[N+](C)(C)CC(=O)N/N=C(\Cc1nc2ccc([N+](=O)[O-])cc2[nH]c1=O)C(=O)Nc1nc2ccc([N+](=O)[O-])cc2s1 | > 100 µM | > 100 µM | > 100 µM | > 100 µM | > 100 µM | > 100 µM | > 100 µM | > 100 µM | > 100 µM | > 100 µM | > 100 µM | > 100 µM | > 100 µM | > 100 µM |  |
| CC(=O)OCC1OC(n2c(C)c(C(C)=O)c(-c3ccco3)c(C#N)c2=S)C(OC(C)=O)C(OC(C)=O)C1OC(C)=O (configuration not stated) | > 100 µM | > 100 µM | > 100 µM | > 100 µM | > 100 µM | > 100 µM | 87.5 µM | > 100 µM | > 100 µM | > 100 µM | > 100 µM | > 100 µM | > 100 µM | > 100 µM |  |
| Clc1cccc(-c2nc3cccc4c3n2Cc2ncccc2-4)c1 | > 100 µM | > 100 µM |  | > 100 µM | > 100 µM | > 100 µM | > 100 µM | > 100 µM | > 100 µM | > 100 µM | > 100 µM |  | > 100 µM | > 100 µM |  |
| COC(=O)c1cc(CC2Cc3cc4c(cc3C2=O)CCC4)cc2c1CCC2 (configuration not stated) | > 100 µM | > 100 µM | > 100 µM | > 100 µM | > 100 µM | > 100 µM |  | > 100 µM | > 100 µM | > 100 µM | > 100 µM |  | > 100 µM | > 100 µM | > 100 µM |
| CCOC(=O)[C@@H]1[C@@H](c2ccccc2)N(C)O[C@@]1(c1ccccc1)C(F)(F)F | 60.7 µM | > 100 µM |  |  | > 100 µM | > 100 µM | > 100 µM |  |  | > 100 µM | > 100 µM | 72.3 µM | > 100 µM | > 100 µM | > 100 µM |
| COC(=O)/C=C/CCC#Cc1ccccc1C#CCC/C=C/C(=O)OC | 24.3 µM | > 100 µM | 10.5 µM | > 100 µM | 42.3 µM | > 100 µM | 85.4 µM | 4.86 µM | 30.9 µM | > 100 µM | > 100 µM |  | > 100 µM | > 100 µM |  |
| COC(=O)C1(C(=O)OC)N=C(C)OC1c1ccccc1O (configuration not stated) | > 100 µM | > 100 µM | > 100 µM | > 100 µM | > 100 µM | > 100 µM | > 100 µM | > 100 µM |  |  | > 100 µM | > 100 µM |  | > 100 µM |  |
| CN(C)c1ccc(C=Nc2ccc(-c3nc4ccccc4s3)cc2)cc1 | 10.9 µM | 82.8 µM | > 100 µM | 93.2 µM | 62.3 µM | > 100 µM | 59.4 µM | > 100 µM | > 100 µM |  | > 100 µM | 44.8 µM |  | > 100 µM |  |
| COc1cccc(NC(=O)CSc2nnc(Cc3ccccc3)o2)c1 | > 100 µM | > 100 µM | > 100 µM | > 100 µM | > 100 µM | > 100 µM |  | > 100 µM | > 100 µM | > 100 µM | > 100 µM | > 100 µM |  |  |  |
| O=C1c2ccccc2C(=O)N1CCCOCc1c[nH]c(=O)[nH]c1=O | > 100 µM | > 100 µM | > 100 µM | > 100 µM | > 100 µM | > 100 µM | > 100 µM | > 100 µM | > 100 µM | > 100 µM | > 100 µM | > 100 µM |  |  |  |
| CC(C)[C@@H](C(=O)N(C)[C@H](C(=O)N1CCC[C@H]1C(=O)OCc1ccccc1)C(C)C)N(C)C(=O)C(Cc1ccccc1)N(C)C(=O)[C@H](NC(=O)OC(C)(C)C)C(C)C (some centres not stated) (Boc-[dV][ξNMeF][NMeV][NMeV]P-OBn) | > 31.6 µM | > 31.6 µM | > 31.6 µM | > 31.6 µM | > 100 µM | > 31.6 µM | > 31.6 µM | > 31.6 µM | > 31.6 µM | > 31.6 µM | > 31.6 µM | 23 µM |  |  |  |
| CC[C@H](C)[C@H]1NC(=O)[C@@H](N)[C@@H](C)OC(=O)[C@H](Cc2ccc(OC)cc2)N(C)C(=O)[C@@H]2CCCN2C(=O)[C@H](CC(C)C)NC(=O)[C@@H](C)C(=O)[C@H](C(C)C)OC(=O)C[C@@H]1O (H-T[X35]LP[NMeY](Me); ester 1-C) | > 100 µM | > 100 µM | > 100 µM | > 100 µM |  | > 100 µM |  | > 100 µM | 66.2 µM | > 100 µM | > 100 µM | 54.9 µM |  | 56.1 µM | > 100 µM |
